Our source for the EC50 values is US20120045393A1 (priority 2009, published 2012).

Where two headings read alike, the source gives them in different places. Non-standard residues stand in square brackets, D forms with d. Residues, ends and D or L forms follow the SMILES beside them. *: point of attachment. DOTA = O=C(O)CN1CCN(CC(=O)O)CCN(CC(=O)*)CCN(CC(=O)O)CC1; Bpa = N[C@@H](Cc1ccc(C(=O)c2ccccc2)cc1)C(=O)O; d2Nal = N[C@H](Cc1ccc2ccccc2c1)C(=O)O; azaGly = NNC(=O)O; Sar = CNCC(=O)O

For this assay, the system named is LHRH binding sites on human ovarian cancer cells (EFO-27).
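Further: Cell-associated radioactivity on confluent EFO-27 monolayers in 96-well plates, measured by microplate scintillation counting.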

For `N=C(N)NCCC[C@H](NC(=O)[C@@H](Cc1ccc2ccccc2c1)NC(=O)CC[C@H](CCCCN)NC(=O)CN1CCN(CC(=O)O)CCN(CC(=O)O)CCN(CC(=O)O)CC1)C(=O)N[C@@H](Cc1c[nH]c2ccccc12)C(=O)N[C@@H](CO)C(=O)N[C@@H](Cc1c[nH]cn1)C(=O)N[C@H](CCCNC(=N)N)C(=O)N[C@@H](Cc1c[nH]c2ccccc12)C(=O)N[C@@H](Cc1ccc(C(=O)c2ccccc2)cc1)C(=O)N1CCC[C@H]1C(=O)NCCOCCOCCN` [BRU-3100], the EC50 (read-out: EC50 μM, Underivatized LHRH peptides and LHRH peptides with chelator on N-terminus, EFO-27 cells) was 0.14 µM.

Take `CN(CC(=O)N[C@@H](Cc1c[nH]cn1)C(=O)N[C@@H](Cc1c[nH]c2ccccc12)C(=O)N[C@@H](CO)C(=O)N[C@@H](Cc1c[nH]cn1)C(=O)N[C@H](CCCNC(=N)N)C(=O)N[C@@H](Cc1c[nH]c2ccccc12)C(=O)N[C@@H](Cc1ccc(C(C)(C)C)cc1)C(=O)N1CCC[C@H]1C(=O)NNC(N)=O)C(=O)CN1CCN(CC(=O)O)CCN(CC(=O)O)CCN(CC(=O)O)CC1` [BRU-2634]: the EC50 stood at 0.98 µM.

`CC(C)C[C@H](NC(=O)[C@H](CCCNC(=N)N)NC(=O)[C@@H](Cc1ccc2ccccc2c1)NC(=O)CN1CCN(CC(=O)O)CCN(CC(=O)O)CCN(CC(=O)O)CC1)C(=O)N[C@@H](CO)C(=O)N[C@@H](Cc1c[nH]cn1)C(=O)N[C@H](CCCNC(=N)N)C(=O)N[C@@H](Cc1c[nH]c2ccccc12)C(=O)N[C@@H](Cc1ccc(C(=O)c2ccccc2)cc1)C(=O)N1CCC[C@H]1C(=O)NNC(N)=O` [compound 3108] ({DOTA}-[d2Nal]RLSH[dR]W[Bpa]P[azaGly]-NH2) returned a concentration giving a half-maximal response (EC50) of 0.56 µM.

In the case of `CN(CC(=O)N[C@@H](Cc1c[nH]cn1)C(=O)N[C@@H](Cc1c[nH]c2ccccc12)C(=O)N[C@@H](CO)C(=O)N[C@@H](Cc1c[nH]cn1)C(=O)N[C@H](CCCNC(=N)N)C(=O)N[C@@H](Cc1c[nH]c2ccccc12)C(=O)N1CCC[C@H]1C(=O)NNC(N)=O)C(=O)CN1CCN(CC(=O)O)CCN(CC(=O)O)CCN(CC(=O)O)CC1` [BRU-2767] (HELM PEPTIDE1{[O=C(O)CN1CCN(CC(=O)O)CCN(CC(=O)[*:2])CCN(CC(=O)O)CC1].[Sar].H.W.S.H.[dR].W.P.[O=C(NN[*:1])[*:2]].[am]}$$$$V2.0), the concentration giving a half-maximal response (EC50) was found to be 10 µM.

`CN(CC(=O)N[C@@H](Cc1ccccc1)C(=O)N[C@@H](Cc1c[nH]c2ccccc12)C(=O)N[C@@H](CO)C(=O)N[C@@H](Cc1c[nH]cn1)C(=O)N[C@H](CCCNC(=N)N)C(=O)N[C@@H](Cc1c[nH]c2ccccc12)C(=O)N[C@@H](Cc1ccc(C(=O)c2ccccc2)cc1)C(=O)N1CCC[C@H]1C(=O)NNC(N)=O)C(=O)CN1CCN(CC(=O)O)CCN(CC(=O)O)CCN(CC(=O)O)CC1` [BRU-2738] ({DOTA}-[Sar]FWSH[dR]W[Bpa]P[azaGly]-NH2) came in with an EC50 (Table 5: modifications of amino acids at positions 1 and 2, in vitro binding on EFO-27 cells) of 1.22 µM.

As for `N=C(N)NCCC[C@H](NC(=O)[C@H](Cc1ccc(OP(=O)(O)O)cc1)NC(=O)CN1CCN(CC(=O)O)CCN(CC(=O)O)CCN(CC(=O)O)CC1)C(=O)N[C@@H](Cc1c[nH]c2ccccc12)C(=O)N[C@@H](CO)C(=O)N[C@@H](Cc1c[nH]cn1)C(=O)N[C@H](CCCNC(=N)N)C(=O)N[C@@H](Cc1c[nH]c2ccccc12)C(=O)N[C@@H](Cc1ccc(C(=O)c2ccccc2)cc1)C(=O)N1CCC[C@H]1C(=O)NNC(N)=O` [BRU-3093], a half-maximal response (EFO-27 cells, competition with [125I-Tyr8]BRU-2477, 90 min) (EC50) required 17 µM.

Consider `N=C(N)NCCC[C@H](NC(=O)[C@@H](Cc1ccc2ccccc2c1)NC(=O)CN1CCN(CC(=O)O)CCN(CC(=O)O)CCN(CC(=O)O)CC1)C(=O)N[C@@H](Cc1c[nH]c2ccccc12)C(=O)N[C@@H](CO)C(=O)N[C@@H](Cc1c[nH]cn1)C(=O)N[C@H](CCCNC(=N)N)C(=O)N[C@@H](Cc1c[nH]c2ccccc12)C(=O)N[C@@H](Cc1ccc(C(=O)c2ccccc2)cc1)C(=O)N1C[C@H](O)C[C@H]1C(=O)NNC(N)=O` [compound 2952], for which the EC50 was 0.28 µM.

Regarding `CN(C(=O)CN1CCN(CC(=O)O)CCN(CC(=O)O)CCN(CC(=O)O)CC1)[C@H](Cc1ccc2ccccc2c1)C(=O)N[C@@H](Cc1c[nH]cn1)C(=O)N[C@@H](Cc1c[nH]c2ccccc12)C(=O)N[C@@H](CO)C(=O)N[C@@H](Cc1c[nH]cn1)C(=O)N[C@H](CCCNC(=N)N)C(=O)N[C@@H](Cc1c[nH]c2ccccc12)C(=O)N[C@@H](Cc1ccc(C(=O)c2ccccc2)cc1)C(=O)N1CCC[C@H]1C(=O)NNC(N)=O` [BRU-3003], the EC50 was 0.76 µM.

A word on the EC50: it is the midpoint of the concentration-response curve.
